Data published in patent US12312332B2 (Merck Sharp & Dohme LLC., priority 2019, dated 2025).
pEC50: −log10 of the molar value.

Target: T1, human OX2R (Homo sapiens, UniProt O43614)
T1 construct: expressed in transfected cells; host or cells: Chinese hamster ovary (CHO) cells, kept under G418 selection
T1 sequence (O43614 1-444): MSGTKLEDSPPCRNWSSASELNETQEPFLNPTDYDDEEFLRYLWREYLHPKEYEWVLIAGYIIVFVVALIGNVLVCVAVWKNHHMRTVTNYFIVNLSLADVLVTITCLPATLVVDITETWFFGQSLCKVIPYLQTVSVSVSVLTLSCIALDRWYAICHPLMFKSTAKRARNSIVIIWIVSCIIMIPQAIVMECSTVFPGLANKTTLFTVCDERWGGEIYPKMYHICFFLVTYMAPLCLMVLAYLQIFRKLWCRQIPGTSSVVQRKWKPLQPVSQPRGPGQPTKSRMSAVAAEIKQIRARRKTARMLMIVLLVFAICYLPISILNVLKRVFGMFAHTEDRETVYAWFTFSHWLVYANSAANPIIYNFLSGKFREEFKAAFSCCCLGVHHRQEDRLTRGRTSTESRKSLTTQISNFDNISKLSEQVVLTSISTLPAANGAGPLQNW
Test: IPOne (IP-One) orexin receptor agonist assay in CHO cells expressing human OX2R
Format: cell-based
Details: for pEC50: CHO cells expressing human OX2R, IP-One detection, 2 hours incubation, four parameter logistic fit, read-out: OX2R Potency, EC50; for % max agonist effect (Emax): human OX2R, percentage of sample raw value/mean max effect (reference compound at 1 uM with 100% activity)
From the text: The utility of the compounds in accordance with the present invention as orexin receptor OX1R and/or OX2R agonists may be readily determined without undue experimentation by methodology well known in the art. Both the OX1R and/or OX2R G-coupled protein receptors (GPCRs) couple through the Gaq signaling pathway, which ultimately promotes calcium mobilization via inositol triphosphate (IP3) production. […] The utility of the compounds in accordance with the present invention as orexin receptor OX1R and/or OX2R agonists may be determined utilizing this assay.
In a typical experiment, the OX1 and OX2 receptor agonist activity is determined in accordance with the following general experimental method. Chinese hamster ovary (CHO) cells expressing human OX1R and/or the human OX2R were grown in Iscove's modified DMEM containing glutaMAX™, 1% G418, 100 U/mL penicillin, 100 μg/mL streptomycin and 10% heat-inactivated qualified fetal bovine serum (FBS). […] During this incubation, IP-one detection reagents were prepared (38:1:1 lysis buffer:D2:AB-cryptate reagents).
For each compound, data were fit to a four parameter logistic fit (ActivityBase software) and the EC50 was reported as the inflection point of the resulting curve. Percent effect for each test compound was determined as the percentage of sample raw value/mean max effect, where the mean max effect was derived from the mean raw value of 32 control wells per assay plate (using Orexin A (cat #003-30) at 1 μM for human OX1R and a reference compound at 1 uM with 100% activity previously established by comparison to Orexin A for human OX2R). The intrinsic orexin receptor agonist activity of a compound which may be used in the present invention may be determined by these assays.

`CS(=O)(=O)N[C@H]1CCN(c2cncc(-c3ccccc3)c2)[C@H]1CO[C@H]1CC[C@@H](c2ccccc2)CC1` (relative stereo) [Example 1, N-((CIS)-2-((((CIS)-4-Phenylcyclohexyl)oxy)methyl)-1-(5-phenylpyridin-3-yl)pyrrolidin-3-yl)methanesulfonamide] was tested, and the pEC50 was under 5.00 and the “% max agonist effect (Emax)” value was 35.7%.

`Cn1cc(N2CC[C@H](NS(C)(=O)=O)[C@@H]2CO[C@H]2CC[C@@H](c3ccccc3)CC2)cn1` (relative stereo) [Example 2, N-((CIS)-1-(1-methyl-1H-pyrazol-4-yl)-2-((((CIS)-4-phenylcyclohexyl)oxy)methyl)pyrrolidin-3-yl)methanesulfonamide] was tested, and the pEC50 was 6.05 and the “% max agonist effect (Emax)” value was 89.7%.

`CS(=O)(=O)N[C@H]1CCN(c2ccc(C(F)(F)F)cc2)[C@H]1CO[C@H]1CC[C@@H](c2ccccc2)CC1` (relative stereo) [Example 3, N-((CIS)-2-((((CIS)-4-phenylcyclohexyl)oxy)methyl)-1-(4-(trifluoromethyl)phenyl)pyrrolidin-3-yl)methanesulfonamide] was tested, and the pEC50 was under 5.00 and the “% max agonist effect (Emax)” value was 7.9%.

For `CS(=O)(=O)N[C@H]1CCN(c2cncc3ccccc23)[C@H]1CO[C@H]1CC[C@@H](c2ccccc2)CC1` (relative stereo) [Example 4, N-((CIS)-1-(isoquinolin-4-yl)-2-((((CIS)-4-phenylcyclohexyl)oxy)methyl)pyrrolidin-3-yl)methanesulfonamide], the pEC50 was 5.97 and the “% max agonist effect (Emax)” value was 97.3%.

`Cn1cnc(N2CC[C@H](NS(C)(=O)=O)[C@@H]2CO[C@H]2CC[C@@H](c3ccccc3)CC2)n1` (relative stereo) [Example 5, N-((CIS)-1-(1-methyl-1H-1,2,4-triazol-3-yl)-2-((((CIS)-4-phenylcyclohexyl)oxy)methyl)pyrrolidin-3-yl)methanesulfonamide] was tested, and the pEC50 was 5.22 and the “% max agonist effect (Emax)” value was 80.4%.

With `COc1ccc(N2CC[C@H](NS(C)(=O)=O)[C@@H]2CO[C@H]2CC[C@@H](c3ccccc3)CC2)cc1` (relative stereo) [Example 6, N-((CIS)-1-(4-methoxyphenyl)-2-((((CIS)-4-phenylcyclohexyl)oxy)methyl)pyrrolidin-3-yl)methanesulfonamide] the pEC50 was 5.04 and the “% max agonist effect (Emax)” value was 25.1%.

For `CS(=O)(=O)N[C@H]1CCN(c2cnc3cc[nH]c3c2)[C@H]1CO[C@H]1CC[C@@H](c2ccccc2)CC1` (relative stereo) [Example 7, N-((CIS)-2-((((CIS)-4-phenylcyclohexyl)oxy)methyl)-1-(1H-pyrrolo[3,2-b]pyridin-6-yl)pyrrolidin-3-yl)methanesulfonamide], the pEC50 was 7.04 and the “% max agonist effect (Emax)” value was 100.1%.

`Cn1cc(N2CC[C@H](NS(C)(=O)=O)[C@@H]2CO[C@H]2CC[C@@H](c3ccccc3)CC2)nn1` (relative stereo) [Example 8, N-((CIS)-1-(1-methyl-1H-1,2,3-triazol-4-yl)-2-((((CIS)-4-phenylcyclohexyl)oxy)methyl)pyrrolidin-3-yl)methanesulfonamide] was tested, and the pEC50 was 6.82 and the “% max agonist effect (Emax)” value was 101.2%.

For `Cc1ncc(N2CC[C@H](NS(C)(=O)=O)[C@@H]2CO[C@H]2CC[C@@H](c3ccccc3)CC2)s1` (relative stereo) [Example 9, N-((CIS)-1-(2-methylthiazol-5-yl)-2-((((CIS)-4-phenylcyclohexyl)oxy)methyl)pyrrolidin-3-yl)methanesulfonamide], the pEC50 was 5.72 and the “% max agonist effect (Emax)” value was 92.1%.

`Cc1nnc(N2CC[C@H](NS(C)(=O)=O)[C@@H]2CO[C@H]2CC[C@@H](c3ccccc3)CC2)s1` (relative stereo) [Example 10, N-((CIS)-1-(5-methyl-1,3,4-thiadiazol-2-yl)-2-((((CIS)-4-phenylcyclohexyl)oxy)methyl)pyrrolidin-3-yl)methanesulfonamide] was tested, and the pEC50 was 6.62 and the “% max agonist effect (Emax)” value was 99.6%.

For `Cc1nc(-c2ccccc2)sc1N1CC[C@H](NS(C)(=O)=O)[C@@H]1CO[C@H]1CC[C@@H](c2ccccc2)CC1` (relative stereo) [Example 11, N-((CIS)-1-(4-methyl-2-phenylthiazol-5-yl)-2-((((CIS)-4-phenylcyclohexyl)oxy)methyl)pyrrolidin-3-yl)methanesulfonamide], the pEC50 was 5.46 and the “% max agonist effect (Emax)” value was 87.7%.

`Cc1nnc(-c2ccc(N3CC[C@H](NS(C)(=O)=O)[C@@H]3CO[C@H]3CC[C@@H](c4ccccc4)CC3)cc2)o1` (relative stereo) [Example 12, N-((CIS)-1-(4-(5-methyl-1,3,4-oxadiazol-2-yl)phenyl)-2-((((CIS)-4-phenylcyclohexyl)oxy)methyl)pyrrolidin-3-yl)methanesulfonamide] was tested, and the pEC50 was 4.98 and the “% max agonist effect (Emax)” value was 68.8%.

In the case of `CS(=O)(=O)N[C@H]1CCN(c2csc(-c3ccncc3)n2)[C@H]1CO[C@H]1CC[C@@H](c2ccccc2)CC1` (relative stereo) [Example 13, N-((CIS)-2-((((CIS)-4-phenylcyclohexyl)oxy)methyl)-1-(2-(pyridin-4-yl)thiazol-4-yl)pyrrolidin-3-yl)methanesulfonamide], the pEC50 was 5.76 and the “% max agonist effect (Emax)” value was 83.9%.

For `Cn1cnc(N2CC[C@H](NS(C)(=O)=O)[C@@H]2CO[C@H]2CC[C@@H](c3ccccc3)CC2)n1` [Example 14, N-((2R,3S)-1-(1-Methyl-1H-1,2,4-triazol-3-yl)-2-((((CIS)-4-phenylcyclohexyl)oxy)methyl)-pyrrolidin-3-yl)methanesulfonamide], the pEC50 was 5.43 and the “% max agonist effect (Emax)” value was 87.9%.

For `Cn1ncnc1N1CC[C@H](NS(C)(=O)=O)[C@@H]1CO[C@H]1CC[C@@H](c2ccccc2)CC1` [Example 15, N-((2R,3S)-1-(1-methyl-1H-1,2,4-triazol-5-yl)-2-((((CIS)-4-phenylcyclohexyl)oxy)methyl)pyrrolidin-3-yl)methanesulfonamide], the pEC50 was 7.47 and the “% max agonist effect (Emax)” value was 101.6%.

For `CS(=O)(=O)N[C@H]1CCN(c2ccccn2)[C@H]1CO[C@H]1CC[C@@H](c2ccccc2)CC1` [Example 16, N-((2R,3S)-2-((((CIS)-4-phenylcyclohexyl)oxy)methyl)-1-(pyridin-2-yl)pyrrolidin-3-yl)methanesulfonamide], the pEC50 was 6.76 and the “% max agonist effect (Emax)” value was 101.3%.

In the case of `CS(=O)(=O)N[C@H]1CCN(c2ccon2)[C@H]1CO[C@H]1CC[C@@H](c2ccccc2)CC1` [Example 17, N-((2R,3S)-1-(isoxazol-3-yl)-2-((((CIS)-4-phenylcyclohexyl)oxy)methyl)pyrrolidin-3-yl)methanesulfonamide], the pEC50 was 6.99 and the “% max agonist effect (Emax)” value was 100.4%.

In the case of `CS(=O)(=O)N[C@H]1CCN(c2ccns2)[C@H]1CO[C@H]1CC[C@@H](c2ccccc2)CC1` [Example 18, N-((2R,3S)-1-(isothiazol-5-yl)-2-((((CIS)-4-phenylcyclohexyl)oxy)methyl)pyrrolidin-3-yl)methanesulfonamide], the pEC50 was 5.54 and the “% max agonist effect (Emax)” value was 87.4%.

`CS(=O)(=O)N[C@H]1CCN(c2ccsc2)[C@H]1CO[C@H]1CC[C@@H](c2ccccc2)CC1` [Example 19, N-((2R,3S)-2-((((CIS)-4-phenylcyclohexyl)oxy)methyl)-1-(thiophen-3-yl)pyrrolidin-3-yl)methanesulfonamide] was tested, and the pEC50 was 6.46 and the “% max agonist effect (Emax)” value was 99.8%.
